Test results taken from US12624031B2, “Inhibitors of ubiquitin specific peptidase 22 (USP22) and uses thereof for treating diseases and disorders” (Northwestern University, priority 2022, dated 2026).

Experiments:
[1] = target: human GST-USP22 with Sgf11, Sgf73 1-105 and Sus1 (Homo sapiens, UniProt Q9UPT9); assay: in vitro USP22 deubiquitination assay (re-constructed deubiquitination module); assay type: biochemical; conditions: for IC50: customized deubiquitination assay, human GST-USP22 with Sgf11, Sgf73 1-105, Sus1, read-out: IC50 in suppressing USP22 in vitro catalytic activity
human GST-USP22 with Sgf11, Sgf73 1-105 and Sus1, sequence (Q9UPT9 whole entry): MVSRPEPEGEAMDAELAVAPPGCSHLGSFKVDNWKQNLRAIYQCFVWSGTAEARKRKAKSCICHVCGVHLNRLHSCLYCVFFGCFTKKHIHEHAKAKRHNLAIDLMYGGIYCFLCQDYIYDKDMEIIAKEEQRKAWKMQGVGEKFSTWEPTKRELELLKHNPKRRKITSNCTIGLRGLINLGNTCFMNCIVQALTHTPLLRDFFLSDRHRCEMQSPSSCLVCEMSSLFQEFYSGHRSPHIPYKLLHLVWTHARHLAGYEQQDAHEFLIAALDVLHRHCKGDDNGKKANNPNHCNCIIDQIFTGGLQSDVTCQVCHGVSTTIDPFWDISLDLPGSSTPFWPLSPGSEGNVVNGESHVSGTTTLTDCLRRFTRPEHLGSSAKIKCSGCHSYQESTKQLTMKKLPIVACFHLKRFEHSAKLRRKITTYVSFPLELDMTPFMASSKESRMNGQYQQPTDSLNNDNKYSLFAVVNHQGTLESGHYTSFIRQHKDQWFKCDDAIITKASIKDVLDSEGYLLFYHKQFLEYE
human GST-USP22 with Sgf11, Sgf73 1-105 and Sus1, sequence (Q14CW9 whole entry partner): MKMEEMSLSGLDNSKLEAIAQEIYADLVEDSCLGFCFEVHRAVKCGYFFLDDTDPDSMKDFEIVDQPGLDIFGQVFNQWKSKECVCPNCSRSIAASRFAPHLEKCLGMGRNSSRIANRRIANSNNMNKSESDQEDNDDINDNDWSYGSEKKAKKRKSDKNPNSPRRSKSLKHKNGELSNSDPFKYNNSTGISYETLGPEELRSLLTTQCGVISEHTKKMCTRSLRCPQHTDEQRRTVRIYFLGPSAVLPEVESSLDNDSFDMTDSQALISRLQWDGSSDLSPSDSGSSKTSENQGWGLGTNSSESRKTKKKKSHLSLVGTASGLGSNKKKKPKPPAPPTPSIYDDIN
human GST-USP22 with Sgf11, Sgf73 1-105 and Sus1, sequence (O15265 1-105 partner limits assumed): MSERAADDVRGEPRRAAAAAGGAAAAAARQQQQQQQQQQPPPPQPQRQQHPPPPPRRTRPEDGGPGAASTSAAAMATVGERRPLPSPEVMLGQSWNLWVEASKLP
human GST-USP22 with Sgf11, Sgf73 1-105 and Sus1, sequence (Q9NPA8 whole entry partner): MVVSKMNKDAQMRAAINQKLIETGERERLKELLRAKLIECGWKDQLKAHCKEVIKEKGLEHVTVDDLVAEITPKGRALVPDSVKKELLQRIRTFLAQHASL
Description: (A) The chemical structure of S02-S106 11-((4-cyanophenyl)amino)-7,8,9,10-tetrahydrobenzo(4,5)imidazole[1,2-b]isoquinoline-6-carbonitrile, (B & C) The efficacy of USP22i-S02 analogs in inhibiting USP22 catalytic activity was determined in vitro. The representative data from a triplicate analysis of S02-S106 with S02 as a control are shown (B). The IC50 of USP22i-S02 analogs in suppressing USP22 in vitro catalytic activity are shown (C). NA, not available.
We purchased human recombinant Sgf11 and Sgf73 1-105 and Sus1 proteins from R&D Systems Inc, and re-constructed the deubiquitination activity with our human GST-USP22. The USP22 customized deubiquitination was optimized and used for in vitro screening the activity of synthetic USP22i-s02 analogs with the USP22i-s02 as a control (FIG. 12).

[2] = tested on: FoxP3 expression in CD4+ natural T-regulatory cells; assay: FoxP3 expression in natural T-regulatory cells by flow cytometry; assay type: cell-based, murine
Description: FIGS. 3 and 4: Change in FoxP3 expression in murine CD4+ natural T-regulatory cells. Murine lymphocytes were isolated from the spleens and lymph nodes and cultured with varying concentrations of inhibitor (0.25 μg/mL to 2 μg/mL) or DMSO, anti-CD3, anti-CD28, TGFβ, and IL-2. After two days, lymphocytes were analyzed by flow cytometry for FoxP3 expression in natural T-regulatory (nTregs) gated on CD3+CD4+CD25+FoxP3+. (FIG. 3) Representative histograms of FITC::FoxP3 MFI in nTregs cultured with inhibitors at a concentration of 2 μg/mL. (FIG. 4) Representative plot of FITC::FoxP3 geometric MFI in nTregs across different concentrations of inhibitor.
We then analyzed whether treatment of Tregs with the compounds S106, 107 and 110 inhibits USP22 activity in Tregs as measured by FoxP3 expression levels by flow cytometry.

[3] = tested on: PD-L1 expression in A549 cells; assay: PD-L1 expression in A549 cells by flow cytometry; assay type: cell-based, human
Description: FIG. 13: The effects of USP22i-S02-S106 on suppression of PD-L1 expression on human lung adenocarcinoma cells. Human […] lung adenocarcinoma A549 cells were treated with S02-S106 or its lead compound S02 for 48 hours. The expression levels of PD-L1 were determined by flow cytometry. (A) Representative flow data from A549 cells treated with 2 μM S02-S106 or with 15 μM S02 are shown. DMSO treated cells were used as an untreated control and USP22 CRISPR knockout A549 cells were used as a positive control. (B) The dose-dependent inhibition of PD-L1 expression in A549 cells by S02-S106 with USP22i-S02 as a control. Data were normalized with PD-L1 expression levels in USP22-KO cells as 100% of USP22 inhibition as shown in A. (C) Inhibition of PD-L1 expression in WT and USP22-null A549 cells by S02-S106.
We then used PD-L1 expression level as a measurement to evaluate the inhibitory efficacy of USP22 by S02-S106.
To determine the specificity of USP22i-S02-S106, we treated the WT and USP22-null lung cancer cells.

[4] = tested on: polarized CD4+ T-regulatory cells; assay: cytotoxicity in polarized CD4+ T-regulatory cells; assay type: cell-based, murine; conditions: for cytotoxicity to Tregs: 156 ng/mL to 5 ug/mL, compared to DMSO controls; for toxicity: Example 5, no concentration given
Description: FIG. 2: Cytotoxicity of compounds from 156 ng/mL to 5 ug/mL concentration range in polarized CD4+ T-regulatory cells. Murine CD4+ T-cells were isolated and polarized in vitro to T-regulatory cells using 5 ng/mL IL-2, 2 μg/mL anti-IL-4, 2 μg/mL anti-IFNγ, and 1 ng/mL TGFβ. After 48 hours, the inhibitors were added to the cells.
We then synthesized all 17 compounds and validated their cytotoxicity to regulatory T cells. To this end, mouse CD4 T cells were polarized to FoxP3 Tregs for two days, followed by treatment of the cells with each of the compounds at the doses upto 5 ug/ml. […] In addition, the rest of the compounds had poor solubility in DMSO, and were not further tested.

Compound: N#Cc1ccc(Nc2c3c(c(C#N)c4nc5ccccc5n24)CCCC3)cc1 [Compound S02-S106, 11-((4-cyanophenyl)amino)-7,8,9,10-tetrahydrobenzo(4,5)imidazole[1,2-b]isoquinoline-6-carbonitrile]
- IC50 [1]: 600 nM
- improvement of USP22i-S02 inhibitory activity ([1]; cyano group at R1 position of E ring, versus USP22i-S02): at least 8 folds
- USP22 inhibitory activity relative to USP22i-S02 ([1]; in vitro deubiquitination assay): most potent USP22 inhibitory activity
- improvement of inhibitory efficacy ([1]; versus S02, in vitro and cell-based studies collectively): 4-8 folds
- decrease of FoxP3 expression in nTregs ([2]; 2 μg/mL, two days): higher efficacy compared to usp22i-s02
- FoxP3 expression levels in Tregs ([2]; concentration of 1-2 ug): dose dependently reduced
- efficacy in suppressing PD-L1 expression ([3]; A549 cells, S02-S106 at 2 μM versus S02 at 15 μM): better efficacy than S02 at 15 μM
- IC50 ([3]; Homo sapiens, A549 cells, 48 hours, read-out: IC50 inhibition of PD-L1 expression): ~3200 nM
- PD-L1 expression in USP22-null A549 cells ([3]; USP22-null A549 cells): did not further reduce PD-L1 expression
- PD-L1 expression in WT A549 cells ([3]; WT A549 cells): dramatically inhibited PD-L1 expression to a level comparable to that of USP22-null A549 cells
- cytotoxicity to Tregs [4]: least cytotoxicity
- toxicity [4]: without increasing its toxicity
- toxicity ([4]; listed as USP22i-S02-S106): without increasing the cytotoxicity

Compound: N#Cc1c2c(c(Nc3ccc(CN)cc3)n3c1nc1ccccc13)CCCC2 [Compound S02-S113, (11-((4-aminomethyl)phenyl)amino)-7,8,9,10-tetrahydrobenzo(4,5)imidazole[1,2-b]isoquinoline-6-carbonitrile]
- IC50 [1]: 300 nM
- cytotoxicity to Tregs [4]: modest toxicity
- toxicity [4]: highly toxic

Compound: Cn1c2nc3ccccc3c-2c(Nc2ccccc2)c2ccccc21 [Compound S201, N5-methyl-N-phenyl-5H-indolo[2,3-b]quinolin-11-amine]
- cytotoxicity to Tregs [4]: extremely toxic

Compound: N,5-dimethyl-5H-indolo[2,3-b]quinolin-11-amine compound with anisole [Compound S202]
- cytotoxicity to Tregs [4]: extremely toxic
